# Data taken from patent US20250257099A1 (priority 2022, published 2025).
# Assays:
# [1] = target: SARS-CoV-2 S protein (Severe acute respiratory syndrome coronavirus 2, UniProt P0DTC2); assay: cell-based; conditions: HEK-293T, read-out: IC90, inhibition of S-mediated fusion
# [2] = test system: SARS-CoV-2; conditions: 72 h
# [3] = test system: Vero E6 cells
compound,measurement,setting,value
CC[C@H](C)[C@H](NC(=O)[C@H](C)NC(=O)[C@H](CCC(=O)O)NC(=O)[C@H](CCC(=O)O)NC(=O)[C@H](CC(C)C)NC(=O)[C@H](CCCCN)NC(=O)[C@H](CCCCN)NC(=O)[C@H](CCSC)NC(=O)[C@H](CCC(=O)O)NC(=O)[C@H](Cc1ccc(O)cc1)NC(=O)[C@H](CCC(=O)O)NC(=O)[C@H](CC(C)C)NC(=O)[C@H](CC(=O)O)NC(=O)[C@H](CC(C)C)NC(=O)[C@H](Cc1ccccc1)NC(=O)[C@@H](NC(=O)[C@@H](NC(=O)[C@H](CC(N)=O)NC(=O)[C@@H](NC(=O)[C@H](CCC(N)=O)NC(=O)[C@H](CC(=O)O)NC(=O)[C@H](CC(C)C)NC(=O)[C@H](CO)NC(C)=O)[C@@H](C)CC)C(C)C)[C@@H](C)O)C(=O)N[C@@H](CCCCN)C(=O)N[C@@H](CCCCN)C(=O)N[C@@H](CC(C)C)C(=O)N[C@@H](CCC(=O)O)C(=O)N[C@@H](CCC(=O)O)C(=O)N[C@@H](CO)C(=O)N[C@@H](Cc1ccc(O)cc1)C(=O)N[C@H](C(=O)N[C@@H](CC(=O)O)C(=O)N[C@@H](CC(C)C)C(=O)N[C@@H](CCCCN)C(=O)N[C@@H](CCC(=O)O)C(=O)N[C@@H](CC(C)C)C(=O)NCC(=O)N[C@@H](CO)C(=O)NCC(=O)N[C@@H](CO)C(=O)NCC(=O)N[C@@H](CSCC(=O)NCCOCCOCCOCCOCCC(=O)O[C@H]1CC[C@@]2(C)C(=CC[C@H]3[C@@H]4CC[C@H]([C@H](C)CCCC(C)C)[C@@]4(C)CC[C@@H]32)C1)C(N)=O)[C@@H](C)CC [EK1 lipopeptide],IC90,[1],> 900 nM
same,IC50,[2],~80 nM
same,toxicity (MTT assay),[3],< 20%
